{
  "source": "patent US20250002492A1",
  "about": "“COMPOSITIONS OF FOLATE ABSORPTION INHIBITORS AND METHODS THEREOF” (THE TEXAS A&M UNIVERSITY SYSTEM, priority 2023, published 2025)",
  "target": "T1, Folate Uptake Transporter (PCFT) in Caco2 cells (Homo sapiens, UniProt Q96NT5)",
  "T1 construct": "These cells express high levels of the PCFT/SLC46A1 receptor; host or cells: Caco-2",
  "T1 sequence (Q96NT5 1-459)": "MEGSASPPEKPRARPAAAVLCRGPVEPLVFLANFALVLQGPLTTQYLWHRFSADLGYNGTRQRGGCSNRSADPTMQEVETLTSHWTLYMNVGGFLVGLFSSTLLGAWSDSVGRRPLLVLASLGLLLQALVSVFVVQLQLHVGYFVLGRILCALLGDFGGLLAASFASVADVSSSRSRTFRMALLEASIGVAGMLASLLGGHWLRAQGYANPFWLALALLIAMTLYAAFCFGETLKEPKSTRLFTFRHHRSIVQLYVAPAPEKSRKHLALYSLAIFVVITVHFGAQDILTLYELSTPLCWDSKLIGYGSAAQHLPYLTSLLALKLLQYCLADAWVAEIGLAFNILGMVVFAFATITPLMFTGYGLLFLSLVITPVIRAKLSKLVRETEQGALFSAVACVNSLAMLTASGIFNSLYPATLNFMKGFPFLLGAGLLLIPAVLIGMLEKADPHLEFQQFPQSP",
  "assay": "Folate uptake transporter inhibition in Caco2 cell line ([3H]-folic acid uptake)",
  "format": "cell-based",
  "protocol": "Cell plates were prepared using Caco-2 cell culture medium consisting of Dulbecco's Modified Eagle's Medium (DMEM) with high glucose and L-glutamine supplemented with: 10% FBS, 1× penicillin-streptomycin mixture and 1×non-essential amino acids (NEAA) and medium was incubated at 37° C., 5% CO2 for 0.5 hour. Plates were prepared for cell seeding. Caco-2 cells from American Type Culture Collection at passage 44 were cultivated in T-75 flasks in a cell culture incubator set at 37° C., 5% CO2, 95% relative humidity. Cells reached 80-90% confluence before detaching and splitting. Cultivated cells in T-75 flasks were rinsed with 5 mL PBS and aspirated off. Then, 3 mL trypsin/EDTA was added, and cells were incubated at 37° C. for approximately 5 minutes or until the cells detached and floated. Trypsin/EDTA was inactivate by adding excess serum containing medium. Cell suspension was removed and transferred to a conical tube and cells were pelleted by centrifugation at 120×g for 5 minutes. Cells were resuspended in seeding medium at a density of 3×10^4 cells/well in 24-well plates. The plate was incubated for 8-10 days. The medium was replaced every other day, beginning no sooner than 48 hours after initial plating.\nThe transport buffer (HBSS with 10 mM MES, pH 5.5) was prepared by weighing 1.952 g of MES and 0.35 g sodium hydrogen carbonate and adding into 900 mL of pure water followed by sonication to dissolve the content. Following the transfer of 100 mL of 10×HBSS into the solution. The solution was placed on a stirrer, the pH was slowly adjusted with hydrochloric acid to 5.5, and then the solution was filtered to get HBSS solution (with 10 mM MES, pH 5.5).\nThe [3H]-folic acid (10 nM) substrate solution was prepared using [3H]-folic acid (1 mCi/ml) diluted with pH 5.5 buffer. Next, the [3H]-folic acid (10 nM) substrate solution+test inhibitor (X μM) and the [3H]-folic acid (10 nM) substrate solution+positive control inhibitor (pemetrexed, 50 μM) were prepared. For the solution without inhibitor, DMSO was diluted with corresponding substrate solution to get the working incubation solution.\nThe pre-incubation solution was prepared by adding the same final concentration of test compound (X μM) and the known inhibitor (pemetrexed, 50 μM) in pH 5.5 buffer. For the solution without inhibitor, DMSO diluted with in pH 5.5 buffer was used as the vehicle control.\nWhen the 8-10 day Caco-2 cultured cells reached confluence and were differentiated, they were ready to be used for transport studies. The Caco-2 plate was removed from the incubator, and the medium was removed from the 24-well Plates. Next, cells were washed 3 times with 300 μL of pre-warmed pH 5.5 buffer. Then, 300 μL of pre-incubation solution was added into each well and the plate was placed at 37° C. for 30 minutes. The assay was performed in duplicate. After 30 minutes pre-incubation, the pre-incubation solution was aspirated, and 300 μL of pre-warmed working incubation solution was added to start the transporter assay. After 6 minutes incubation, cells were washed by quickly adding/aspirating 300 μL of ice-cold pH 5.5 buffer 4 times. The pH 5.5 buffer was removed and 300 μL of pure water was added into each well. Freeze-thaw in liquid nitrogen and 37° C. incubator was repeated for 3 times to lyse cells. After, centrifugation at 3,300 g was performed for 30 seconds. Next, 50 μL of supernatant was transferred to Isoplate-96 Microplate. 200 μL of scintillation fluid was added to the 50 μL sample and radioactivity was measured by liquid scintillation counting in a MicroBeta 2 scintillation counter for 1 min/sample.\nA BCA Kit was used to determine the protein content for each well. Bovine serum albumin at 2, 1, 0.5, 0.25, 0.125, 0.0625, 0.0313, 0.0156, 0.00781 and 0.00391 mg/mL was prepared in Phosphate Buffer Saline (PBS, pH 7.4). 10 μL of supernatant was mixed from the previous step with the same volume of PBS. […]",
  "data": [
    {"smiles": "CC(=O)N1CCC(C(=O)N2CCN3C(=O)c4cc(-c5ccccc5)ccc4NC(=O)C3C2)CC1", "note": "(centres unmarked) [MPOL_B_1, 2-(1-acetylpiperidine-4-carbonyl)-8-phenyl-1,3,4,12a-tetrahydrobenzo[e]pyrazino[1,2-a][1,4]diazepine-6,12(2H,11H)-dione]", "values": [
      {"measurement": "inhibition at 50 µM", "setting": "Caco-2, pH 5.5, test conc. 50 μM, [3H]-folic acid 10 nM, 30 min pre-incubation, 6 min incubation, read-out: Percentage inhibition (%)", "value": 42.3, "unit": "%"},
      {"measurement": "effect on folate transport / uptake", "setting": "Caco-2 cells, 50 μM, pH 5.5", "value": "inhibit folate uptake"}
    ]}
  ]
}
